Experimental data from patent US10143666B2, “Small molecule inhibitors targeting CAG-repeat RNA toxicity in polyglutamine diseases” (The Chinese University of Hong Kong, priority 2015, dated 2018).
Values joined by “and” are separate entries in the source; they are usually repeats but may differ in a detail not shown here. Equal values may be shown once.

Experiments:
CUG-repeat RNA = conditions: reported previously; cited from earlier work
[1] = system: EGFPCAG78 RNA expressing SK-N-MC cells; experiment: LDH cytotoxicity assay, EGFPCAG78 RNA expressing SK-N-MC cells; assay type: cell-based, human
Method: It was next investigated whether DB213 could mitigate expanded CAG-repeat RNA-mediated toxicity in SK-N-MC human neuronal cell. […] Taken together, DB213 could suppress the expanded CAG RNA-mediated but not polyQ protein-mediate toxicity in human neuronal cell.
SK-N-MC human neuronal cells were seeded on a 24-well plate and lactate dehydrogenase enzyme activity in the cell culture medium was measured 72 hours post-transfection and drugs treatment using the Cytotox 96 non-radioactive cytotoxicity assay (Promega).

Body weight in R6/2 mice = conditions: for Body weight (individual mouse): in g (unit assumed); for Body weight, differences between treatment groups: any time point, p>0.05
Method: The body weights were measured daily.

Which “Binding to CUG repeats / CUG-repeat RNA” value (CUG-repeat RNA) does the source give for CN(C)CCCNC(=N)c1ccc(C(=N)NCCCN(C)C)cc1.Cl.Cl.Cl.Cl [DB213] here?
Its value is “did not bind to CUG repeats”.

What about the “Cell death induced by EGFPCAG78 RNA (LDH assay)” value ([1]; 72 hours post-transfection and treatment) of the same compound?
Its value is “could be suppressed”.

What about the IC50 ([1]; read-out: IC50, inhibition of cell death induced by EGFPCAG78 RNA (LDH enzyme activity reduced by 50%)) of the same compound?
The IC50 was 6.9 ± 1.8 nM.

And the “Body weight (individual mouse)” value (Body weight in R6/2 mice; i.n. daily 50 mg/kg, Day 1, listed as Compound-5, 50 mg/kg)?
The value was 20.9 and 20 and 23.9.

What about the Body weight (group Mean) (Body weight in R6/2 mice; i.n. daily 50 mg/kg, Day 2) of the same compound?
Its Body weight (group Mean) is 21.1 g.

And the “Body weight (individual mouse)” value (Body weight in R6/2 mice; i.n. daily 50 mg/kg, Day 2, listed as Compound-5, 50 mg/kg)?
Its value is 20.6 and 17.9 and 17.5 and 25.3.

And the “Body weight (individual mouse)” value (Body weight in R6/2 mice; i.n. daily 50 mg/kg, Day 3, listed as Compound-5, 50 mg/kg)?
Its value is 21.1 and 24 and 26.3.

And the Body weight (group Mean) (Body weight in R6/2 mice; i.n. daily 50 mg/kg, Day 4)?
The Body weight (group Mean) was 22 g.

And the “Body weight (individual mouse)” value (Body weight in R6/2 mice; i.n. daily 50 mg/kg, Day 4, listed as Compound-5, 50 mg/kg)?
Its value is 20.1 and 26.3.

What about the “Body weight (individual mouse)” value (Body weight in R6/2 mice; i.n. daily 50 mg/kg, Day 5, listed as Compound-5, 50 mg/kg) of the same compound?
The value was 19.9 and 17.4 and 23.6 and 20.7 and 25.6.

What about the Body weight (group Mean) (Body weight in R6/2 mice; i.n. daily 50 mg/kg, Day 6) of the same compound?
Its Body weight (group Mean) is 21.5 g.

And the “Body weight (individual mouse)” value (Body weight in R6/2 mice; i.n. daily 50 mg/kg, Day 6, listed as Compound-5, 50 mg/kg)?
The value was 19.9 and 17.6 and 21.5 and 25.

What about the “Body weight (individual mouse)” value (Body weight in R6/2 mice; i.n. daily 50 mg/kg, Day 7, listed as Compound-5, 50 mg/kg) of the same compound?
The value was 20.4 and 17.9 and 23.5 and 21.5 and 26.3.

What about the “Body weight (individual mouse)” value (Body weight in R6/2 mice; i.n. daily 100 mg/kg, Day 1, listed as Compound-5, 100 mg/kg) of the same compound?
Its value is 19 and 20.6 and 23.5 and 23.2 and 23.7.

And the Body weight (group Mean) (Body weight in R6/2 mice; i.n. daily 100 mg/kg, Day 2)?
The Body weight (group Mean) was 21 g.

And the “Body weight (individual mouse)” value (Body weight in R6/2 mice; i.n. daily 100 mg/kg, Day 2, listed as Compound-5, 100 mg/kg)?
Its value is 20.3 and 19.2 and 23.2 and 20.7 and 23.6.

And the “Body weight (individual mouse)” value (Body weight in R6/2 mice; i.n. daily 100 mg/kg, Day 3, listed as Compound-5, 100 mg/kg)?
Its value is 19.3 and 20.7 and 19.8 and 23.9 and 21.1.

What about the Body weight (group Mean) (Body weight in R6/2 mice; i.n. daily 100 mg/kg, Day 4) of the same compound?
The Body weight (group Mean) was 21.6 g.

What about the “Body weight (individual mouse)” value (Body weight in R6/2 mice; i.n. daily 100 mg/kg, Day 4, listed as Compound-5, 100 mg/kg) of the same compound?
The value was 19.4 and 19.8 and 24 and 21.1 and 24.4.

And the “Body weight (individual mouse)” value (Body weight in R6/2 mice; i.n. daily 100 mg/kg, Day 5, listed as Compound-5, 100 mg/kg)?
Its value is 20.6 and 19.4 and 23.6 and 20.7 and 23.9.

And the Body weight (group Mean) (Body weight in R6/2 mice; i.n. daily 100 mg/kg, Day 6)?
The Body weight (group Mean) was 21.5 g.

And the “Body weight (individual mouse)” value (Body weight in R6/2 mice; i.n. daily 100 mg/kg, Day 6, listed as Compound-5, 100 mg/kg)?
The value was 19.8 and 23.6 and 21.1 and 24.

And the Body weight (group Mean) (Body weight in R6/2 mice; i.n. daily 100 mg/kg, Day 7)?
The Body weight (group Mean) was 21.1 g.

What about the “Body weight (individual mouse)” value (Body weight in R6/2 mice; i.n. daily 100 mg/kg, Day 7, listed as Compound-5, 100 mg/kg) of the same compound?
Its value is 19 and 19.4 and 24.7.

What about the Body weight (group Mean) (Body weight in R6/2 mice; i.n. daily 200 mg/kg, Day 1) of the same compound?
Its Body weight (group Mean) is 20.9 g.

What about the “Body weight (individual mouse)” value (Body weight in R6/2 mice; i.n. daily 200 mg/kg, Day 1, listed as Compound-5, 200 mg/kg) of the same compound?
Its value is 19.9 and 23.6.

And the “Body weight (individual mouse)” value (Body weight in R6/2 mice; i.n. daily 200 mg/kg, Day 2, listed as Compound-5, 200 mg/kg)?
The value was 23.5.

And the Body weight (group Mean) (Body weight in R6/2 mice; i.n. daily 200 mg/kg, Day 3)?
The Body weight (group Mean) was 20.4 g.

And the “Body weight (individual mouse)” value (Body weight in R6/2 mice; i.n. daily 200 mg/kg, Day 3, listed as Compound-5, 200 mg/kg)?
Its value is 18.3 and 19.2 and 21.5.

And the “Body weight (individual mouse)” value (Body weight in R6/2 mice; i.n. daily 200 mg/kg, Day 4, listed as Compound-5, 200 mg/kg)?
Its value is 17.9 and 19.

And the Body weight (group Mean) (Body weight in R6/2 mice; i.n. daily 200 mg/kg, Day 5)?
The Body weight (group Mean) was 20.7 g.

What about the “Body weight (individual mouse)” value (Body weight in R6/2 mice; i.n. daily 200 mg/kg, Day 5, listed as Compound-5, 200 mg/kg) of the same compound?
Its value is 18.2 and 18.3 and 22.7.

What about the “Body weight (individual mouse)” value (Body weight in R6/2 mice; i.n. daily 200 mg/kg, Day 6, listed as Compound-5, 200 mg/kg) of the same compound?
Its value is 18.4 and 23.1.

What about the Body weight (group Mean) (Body weight in R6/2 mice; i.n. daily 200 mg/kg, Day 7) of the same compound?
The Body weight (group Mean) was 20.4 g.

What about the Body weight (group Mean) (Body weight in R6/2 mice; i.n. daily 300 mg/kg, Day 1) of the same compound?
Its Body weight (group Mean) is 21.6 g.

And the Body weight (group Mean) (Body weight in R6/2 mice; i.n. daily 300 mg/kg, Day 2)?
The Body weight (group Mean) was 20.2 g.

What about the Body weight (group Mean) (Body weight in R6/2 mice; i.n. daily 300 mg/kg, Day 3) of the same compound?
Its Body weight (group Mean) is 19.5 g.

And the Body weight (group Mean) (Body weight in R6/2 mice; i.n. daily 300 mg/kg, Day 6)?
Its Body weight (group Mean) is 20.1 g.

And the Body weight (group Mean) (Body weight in R6/2 mice; i.n. daily 300 mg/kg, Day 7)?
The Body weight (group Mean) was 20.4 g.

What about the “Body weight, differences between treatment groups” value (Body weight in R6/2 mice; i.n. daily 50-300 mg/kg) of the same compound?
Its value is “no differences in body weight”.

And the Body weight (group Mean) (Body weight in R6/2 mice; i.v. 50 mg/kg (treatment discontinued), Day 2, n 1)?
The Body weight (group Mean) was 16.1 g.

And the Body weight (group Mean) (Body weight in R6/2 mice; i.v. 50 mg/kg (treatment discontinued), Day 3, n 1)?
Its Body weight (group Mean) is 16.3 g.

And the Body weight (group Mean) (Body weight in R6/2 mice; i.v. 50 mg/kg (treatment discontinued), Day 4, n 1)?
Its Body weight (group Mean) is 16.2 g.

What about the Body weight (group Mean) (Body weight in R6/2 mice; i.v. 50 mg/kg (treatment discontinued), Day 5, n 1) of the same compound?
The Body weight (group Mean) was 16.8 g.

What about the Body weight (group Mean) (Body weight in R6/2 mice; i.v. 50 mg/kg (treatment discontinued), Day 6 (not measured, replaced by mean of days 5 and 7), n 1) of the same compound?
The Body weight (group Mean) was 16.8 g.

And the Body weight (group Mean) (Body weight in R6/2 mice; i.v. 50 mg/kg (treatment discontinued), Day 7, n 1)?
The Body weight (group Mean) was 16.8 g.

And the Body weight (group Mean) (Body weight in R6/2 mice; i.v. twice-a-week 12.5 mg/kg, Day 3)?
Its Body weight (group Mean) is 22 g.

And the Body weight (group Mean) (Body weight in R6/2 mice; i.v. twice-a-week 12.5 mg/kg, Day 4)?
Its Body weight (group Mean) is 22 g.

What about the Body weight (group Mean) (Body weight in R6/2 mice; i.v. twice-a-week 12.5 mg/kg, Day 6 (not measured, replaced by mean of days 5 and 7)) of the same compound?
The Body weight (group Mean) was 22.4 g.

And the Body weight (group Mean) (Body weight in R6/2 mice; i.v. twice-a-week 12.5 mg/kg, Day 7)?
Its Body weight (group Mean) is 22.6 g.

And the Body weight (group Mean) (Body weight in R6/2 mice; i.v. twice-a-week 25 mg/kg, Day 2)?
The Body weight (group Mean) was 21 g.

What about the Body weight (group Mean) (Body weight in R6/2 mice; i.v. twice-a-week 25 mg/kg, Day 3) of the same compound?
Its Body weight (group Mean) is 21.6 g.

And the Body weight (group Mean) (Body weight in R6/2 mice; i.v. twice-a-week 25 mg/kg, Day 4)?
The Body weight (group Mean) was 21.6 g.

And the Body weight (group Mean) (Body weight in R6/2 mice; i.v. twice-a-week 25 mg/kg, Day 7)?
Its Body weight (group Mean) is 22 g.

What about the “Body weight, differences between treatment groups” value (Body weight in R6/2 mice; i.v. twice-a-week 12.5 and 25 mg/kg) of the same compound?
Its value is “no differences in body weight”.
